Species: Rattus norvegicus
Assay: DrugMatrix - Regimen: Daily Repeat
Assay type: toxicity, organism-based, Sprague-Dawley
Parameters: regimen Daily Repeat, gender Male, age 6-8 weeks
Conditions: in vivo, po, route oral GAVAGE, vehicle .5 % CMC; for ABSOLUTE BASOPHIL / ABSOLUTE EOSINOPHIL / ABSOLUTE LYMPHOCYTE / ABSOLUTE MONOCYTE / ABSOLUTE SEGMENTED NEUTROPHIL / BASOPHIL / EOSINOPHIL / ERYTHROCYTE COUNT / HEMATOCRIT / HEMOGLOBIN / LEUKOCYTE COUNT / LYMPHOCYTE / MEAN CORPUSCULAR HEMOGLOBIN / MEAN CORPUSCULAR HEMOGLOBIN CONCENTRATION / MEAN CORPUSCULAR VOLUME / MONOCYTE / NEUTROPHIL / NUCLEATED RED BLOOD CELLS / PLATELET COUNT: tissue Blood; for ALANINE AMINOTRANSFERASE / ALBUMIN / ALKALINE PHOSPHATASE / ASPARTATE AMINOTRANSFERASE / BLOOD UREA NITROGEN / CARBON DIOXIDE / CHLORIDE / CHOLESTEROL / CREATINE PHOSPHOKINASE / CREATININE / GLUCOSE / LACTATE DEHYDROGENASE / LIPASE / PHOSPHORUS / POTASSIUM / SODIUM / TOTAL BILIRUBIN / TOTAL PROTEIN / URIC ACID: tissue Plasma
[1] = 1 mg/kg, 72 h, dose level Low, time 3 day
[2] = 1 mg/kg, 120 h, dose level Low, time 5 day
[3] = 1500 mg/kg, 72 h, dose level High, time 3 day
[4] = 1500 mg/kg, 120 h, dose level High, time 5 day

CCOC(=O)[C@H](CCc1ccccc1)N[C@@H](C)C(=O)N1[C@H](C(=O)O)C[C@@H]2CCC[C@@H]21
ABSOLUTE BASOPHIL [1]: 0 CELLS/uL | ABSOLUTE EOSINOPHIL [1]: 0 CELLS/uL | ABSOLUTE LYMPHOCYTE [1]: 13012 CELLS/uL | ABSOLUTE MONOCYTE [1]: 125.67 CELLS/uL | ABSOLUTE SEGMENTED NEUTROPHIL [1]: 829 CELLS/uL | BASOPHIL [1]: 0% | EOSINOPHIL [1]: 0% | ERYTHROCYTE COUNT [1]: 5.51 x10E6/uL | HEMATOCRIT [1]: 35.1% | HEMOGLOBIN [1]: 14.07 G/DL | LEUKOCYTE COUNT [1]: 13.97 x10E3/uL | LYMPHOCYTE [1]: 92.67% | MEAN CORPUSCULAR HEMOGLOBIN [1]: 25.53 pg | MEAN CORPUSCULAR HEMOGLOBIN CONCENTRATION [1]: 40.07 G/DL | MEAN CORPUSCULAR VOLUME [1]: 63.73 fL | MONOCYTE [1]: 1% | NEUTROPHIL [1]: 6.33% | NUCLEATED RED BLOOD CELLS [1]: 0 /100WBC | PLATELET COUNT [1]: 1322.67 x10E3/uL | ALANINE AMINOTRANSFERASE [1]: 44.33 u/L | ALBUMIN [1]: 4.53 G/DL | ALKALINE PHOSPHATASE [1]: 320.33 u/L | ASPARTATE AMINOTRANSFERASE [1]: 82 u/L | BLOOD UREA NITROGEN [1]: 17 mg/dL | CARBON DIOXIDE [1]: 28 mmol/L | CHLORIDE [1]: 100.33 MEQ/L | CHOLESTEROL [1]: 74.33 mg/dL | CREATINE PHOSPHOKINASE [1]: 223 u/L | CREATININE [1]: 0.15 mg/dL | GLUCOSE [1]: 156.33 mg/dL | LACTATE DEHYDROGENASE [1]: 243 u/L | LIPASE [1]: 9.33 u/L | PHOSPHORUS [1]: 13.7 mg/dL | POTASSIUM [1]: 7.23 MEQ/L | SODIUM [1]: 146.6 MEQ/L | TOTAL BILIRUBIN [1]: 0.27 mg/dL | TOTAL PROTEIN [1]: 6.27 G/DL | URIC ACID [1]: 1.87 mg/dL | ABSOLUTE BASOPHIL [2]: 0 CELLS/uL | ABSOLUTE EOSINOPHIL [2]: 73 CELLS/uL | ABSOLUTE LYMPHOCYTE [2]: 14658 CELLS/uL | ABSOLUTE MONOCYTE [2]: 332.67 CELLS/uL | ABSOLUTE SEGMENTED NEUTROPHIL [2]: 1636.33 CELLS/uL | BASOPHIL [2]: 0% | EOSINOPHIL [2]: 0.33% | ERYTHROCYTE COUNT [2]: 5.38 x10E6/uL | HEMATOCRIT [2]: 35.13% | HEMOGLOBIN [2]: 13.27 G/DL | LEUKOCYTE COUNT [2]: 16.7 x10E3/uL | LYMPHOCYTE [2]: 88.33% | MEAN CORPUSCULAR HEMOGLOBIN [2]: 24.7 pg | MEAN CORPUSCULAR HEMOGLOBIN CONCENTRATION [2]: 37.8 G/DL | MEAN CORPUSCULAR VOLUME [2]: 65.37 fL | MONOCYTE [2]: 1.67% | NEUTROPHIL [2]: 9.67% | NUCLEATED RED BLOOD CELLS [2]: 0 /100WBC | PLATELET COUNT [2]: 1368.33 x10E3/uL | ALANINE AMINOTRANSFERASE [2]: 58.33 u/L | ALBUMIN [2]: 4.37 G/DL | ALKALINE PHOSPHATASE [2]: 395 u/L | ASPARTATE AMINOTRANSFERASE [2]: 74.67 u/L | BLOOD UREA NITROGEN [2]: 20 mg/dL | CARBON DIOXIDE [2]: 28.67 mmol/L | CHLORIDE [2]: 101.67 MEQ/L | CHOLESTEROL [2]: 69.67 mg/dL | CREATINE PHOSPHOKINASE [2]: 158.67 u/L | CREATININE [2]: 0.2 mg/dL | GLUCOSE [2]: 153.67 mg/dL | LACTATE DEHYDROGENASE [2]: 81.67 u/L | LIPASE [2]: 8.33 u/L | PHOSPHORUS [2]: 12.57 mg/dL | POTASSIUM [2]: 6.7 MEQ/L | SODIUM [2]: 146.17 MEQ/L | TOTAL BILIRUBIN [2]: 0.2 mg/dL | TOTAL PROTEIN [2]: 6.03 G/DL | URIC ACID [2]: 1.43 mg/dL | ABSOLUTE BASOPHIL [3]: 0 CELLS/uL | ABSOLUTE EOSINOPHIL [3]: 134.33 CELLS/uL | ABSOLUTE LYMPHOCYTE [3]: 16266.67 CELLS/uL | ABSOLUTE MONOCYTE [3]: 0 CELLS/uL | ABSOLUTE SEGMENTED NEUTROPHIL [3]: 1032.33 CELLS/uL | BASOPHIL [3]: 0% | EOSINOPHIL [3]: 0.67% | ERYTHROCYTE COUNT [3]: 5.12 x10E6/uL | HEMATOCRIT [3]: 34.53% | HEMOGLOBIN [3]: 13.77 G/DL | LEUKOCYTE COUNT [3]: 17.43 x10E3/uL | LYMPHOCYTE [3]: 93% | MEAN CORPUSCULAR HEMOGLOBIN [3]: 26.9 pg | MEAN CORPUSCULAR HEMOGLOBIN CONCENTRATION [3]: 39.93 G/DL | MEAN CORPUSCULAR VOLUME [3]: 67.37 fL | MONOCYTE [3]: 0% | NEUTROPHIL [3]: 6.33% | NUCLEATED RED BLOOD CELLS [3]: 0.33 /100WBC | PLATELET COUNT [3]: 1317.67 x10E3/uL | ALANINE AMINOTRANSFERASE [3]: 41.33 u/L | ALBUMIN [3]: 4.1 G/DL | ALKALINE PHOSPHATASE [3]: 454.33 u/L | ASPARTATE AMINOTRANSFERASE [3]: 81.67 u/L | BLOOD UREA NITROGEN [3]: 30.67 mg/dL | CARBON DIOXIDE [3]: 21.67 mmol/L | CHLORIDE [3]: 104.67 MEQ/L | CHOLESTEROL [3]: 56.67 mg/dL | CREATINE PHOSPHOKINASE [3]: 460 u/L | CREATININE [3]: 0.26 mg/dL | GLUCOSE [3]: 192.67 mg/dL | LACTATE DEHYDROGENASE [3]: 379.67 u/L | LIPASE [3]: 8 u/L | PHOSPHORUS [3]: 12.53 mg/dL | POTASSIUM [3]: 7.28 MEQ/L | SODIUM [3]: 143.5 MEQ/L | TOTAL BILIRUBIN [3]: 0.17 mg/dL | TOTAL PROTEIN [3]: 5.9 G/DL | URIC ACID [3]: 1.93 mg/dL | ABSOLUTE BASOPHIL [4]: 0 CELLS/uL | ABSOLUTE EOSINOPHIL [4]: 56.33 CELLS/uL | ABSOLUTE LYMPHOCYTE [4]: 15250 CELLS/uL | ABSOLUTE MONOCYTE [4]: 259.67 CELLS/uL | ABSOLUTE SEGMENTED NEUTROPHIL [4]: 1034 CELLS/uL | BASOPHIL [4]: 0% | EOSINOPHIL [4]: 0.33% | ERYTHROCYTE COUNT [4]: 5.8 x10E6/uL | HEMATOCRIT [4]: 35.77% | HEMOGLOBIN [4]: 14.07 G/DL | LEUKOCYTE COUNT [4]: 16.6 x10E3/uL | LYMPHOCYTE [4]: 92% | MEAN CORPUSCULAR HEMOGLOBIN [4]: 24.3 pg | MEAN CORPUSCULAR HEMOGLOBIN CONCENTRATION [4]: 39.37 G/DL | MEAN CORPUSCULAR VOLUME [4]: 61.63 fL | MONOCYTE [4]: 1.67% | NEUTROPHIL [4]: 6% | NUCLEATED RED BLOOD CELLS [4]: 0 /100WBC | PLATELET COUNT [4]: 1413.67 x10E3/uL | ALANINE AMINOTRANSFERASE [4]: 55.33 u/L | ALBUMIN [4]: 4.33 G/DL | ALKALINE PHOSPHATASE [4]: 583.33 u/L | ASPARTATE AMINOTRANSFERASE [4]: 89.33 u/L | BLOOD UREA NITROGEN [4]: 31.33 mg/dL | CARBON DIOXIDE [4]: 29 mmol/L | CHLORIDE [4]: 102 MEQ/L | CHOLESTEROL [4]: 35 mg/dL | CREATINE PHOSPHOKINASE [4]: 314.67 u/L | CREATININE [4]: 0.26 mg/dL | GLUCOSE [4]: 150.33 mg/dL | LACTATE DEHYDROGENASE [4]: 374.33 u/L | LIPASE [4]: 8.67 u/L | PHOSPHORUS [4]: 11.03 mg/dL | POTASSIUM [4]: 7.1 MEQ/L | SODIUM [4]: 143.93 MEQ/L | TOTAL BILIRUBIN [4]: 0.27 mg/dL | TOTAL PROTEIN [4]: 6.3 G/DL | URIC ACID [4]: 1.6 mg/dL
